Test results published in patent publication EP4332093A1, “SALT CONTAINING PIPERAZINE POLYCYCLIC DERIVATIVE, CRYSTAL FORM THEREOF, PREPARATION METHOD THEREFOR, AND USE THEREOF” (Shanghai Hansoh Biomedical Co., Ltd., priority 2021, dated 2022).

Legend:
[1] = test system: rats; assay: Pharmacodynamic model of active escape experiment in rats; type: in vivo; conditions: F344 rats, oral, Dose 1 mg/kg, one hour before the test; Vehicle 91-98%
Procedure: To evaluate the anti-schizophrenic effect of the compounds using the pharmacodynamic model of the active escape experiment in rats.
A certain mass (such as 1.0 g) of CMC-Na was weighed into a glass bottle. A certain volume (such as 200 mL) of purified water was added. The resulting mixture was stirred to disperse evenly. 1% (v/v) Tween 80 was added according to the solution volume, and the resulting mixture was stirred overnight to obtain a homogeneous clear solution, which was stored at 2 to 8°C for later use.
A prescription amount of the compound was weighed, followed by the addition of a prescription volume of 0.5% CMC-Na+1% Tween 80 solution. […]
The actual sample amount needs to be calculated during the formulation and administration of the compound solution. […]
The current intensity was 0.6 mA and the duration was 10 seconds. […] This would be recorded as escape failures, and the single training ended; • 5.1.5 Each animal was trained 30 times a day for a total of 6 days, and returned to the cage after the training. • 5.2 Baseline test and grouping […]
The following data was collected by the software for data analysis: • Number of avoids of the animal; • Number of escape failures of the animal; • Escape latency of the animal; • All measurement data were expressed as mean ± standard error (Mean ± SEM), and analyzed by Graphpad 6 statistical software. […]

[2] = biological target: 5-HT2A receptor (Homo sapiens, UniProt P28223); assay: Radioligand binding assay, 5-HT2A receptor ([3H]-Ketanserin); parameters: purchased PerkinElmer; conditions: Human 5-HT2A Receptor membrane, [3H]-Ketanserin 2 nM; read-out: 5HT-2A Binding IC50
Chain of 5-HT2A receptor (P28223 whole entry): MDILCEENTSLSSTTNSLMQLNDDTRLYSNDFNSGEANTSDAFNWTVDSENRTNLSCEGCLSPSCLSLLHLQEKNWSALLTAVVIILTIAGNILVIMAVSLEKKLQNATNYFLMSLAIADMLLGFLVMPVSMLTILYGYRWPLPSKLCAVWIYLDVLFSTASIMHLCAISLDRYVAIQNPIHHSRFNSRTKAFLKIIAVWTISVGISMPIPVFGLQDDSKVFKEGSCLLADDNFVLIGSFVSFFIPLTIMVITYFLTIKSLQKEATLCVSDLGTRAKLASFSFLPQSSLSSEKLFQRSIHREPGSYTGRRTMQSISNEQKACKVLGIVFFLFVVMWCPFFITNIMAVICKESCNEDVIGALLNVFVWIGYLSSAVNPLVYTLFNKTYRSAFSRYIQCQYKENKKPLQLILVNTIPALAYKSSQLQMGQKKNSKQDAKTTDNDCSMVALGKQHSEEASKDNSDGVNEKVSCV

[3] = biological target: T1, dopamine D3 receptor (Homo sapiens, UniProt P35462); assay: Radioligand binding assay, dopamine D3 receptor ([3H]-methylspiperone); conditions: Human Dopamine D3 Receptor membrane, [3H]-methylspiperone 0.5 nM
T1 construct: purchased PerkinElmer ES-173-M400UA
T1 sequence (P35462 whole entry): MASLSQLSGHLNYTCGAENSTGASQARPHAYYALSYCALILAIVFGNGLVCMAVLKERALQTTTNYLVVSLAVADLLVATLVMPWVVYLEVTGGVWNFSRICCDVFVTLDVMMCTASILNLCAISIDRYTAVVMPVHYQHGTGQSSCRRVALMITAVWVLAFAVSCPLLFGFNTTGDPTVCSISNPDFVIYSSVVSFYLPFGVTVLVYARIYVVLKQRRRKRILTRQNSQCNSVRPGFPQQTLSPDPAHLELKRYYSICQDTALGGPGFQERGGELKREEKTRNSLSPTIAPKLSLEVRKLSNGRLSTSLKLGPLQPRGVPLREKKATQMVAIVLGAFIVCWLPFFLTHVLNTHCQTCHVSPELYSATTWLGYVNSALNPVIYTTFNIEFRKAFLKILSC

SMILES | IC50 [2] [nM] | IC50 [3] [nM] | CAR value [1] [%]
O=C(NC1CC(CCN2CCN(c3cccc(Cl)c3Cl)CC2)C1)c1ncco1 (stereo not drawn) [Example 12, N-(3-(2-(4-(2,3-Dichlorophenyl)piperazin-1-yl)ethyl)cyclobutyl)oxazole-2-carboxamide] | – | – | 30
O=C(N[C@H]1C[C@H](CCN2CCN(c3cccc(Cl)c3Cl)CC2)C1)c1cccc2ncccc12 [Example 19A, N-(Trans-3-(2-(4-(2,3-dichlorophenyl)piperazin-1-yl)ethyl)cyclobutyl)quinoline-5-c arboxamide] | 1.89 | 0.4 | –
O=C(N[C@H]1C[C@H](CCN2CCN(c3cccc(Cl)c3Cl)CC2)C1)c1ncco1 [Example 12A, N-(Trans-3-(2-(4-(2,3-dichlorophenyl)piperazin-1-yl)ethyl)cyclobutyl)oxazole-2-car boxamide] | 4.19 | 0.37 | 18.5

Further lines, with some results ahead:

IC50 [2] [nM] | IC50 [3] [nM] | SMILES | CAR value [1] [%]
8.73 | 2.54 | O=C(N[C@H]1C[C@@H](CCN2CCN(c3cccc(Cl)c3Cl)CC2)C1)c1ncco1 [Example 12B, N-(Cis-3-(2-(4-(2,3-dichlorophenyl)piperazin-1-yl)ethyl)cyclobutyl)oxazole-2-carbo xamide] | –
5.77 | 0.75 | O=C(N[C@H]1C[C@H](CCN2CCN(c3cccc(Cl)c3Cl)CC2)C1)C1(O)CC1 [Example 6A, N-(Trans-3-(2-(4-(2,3-dichlorophenyl)piperazin-1-yl)ethyl)cyclobutyl)-1-hydroxycy clopropane-1-carboxamide] | –
0.79 | 0.44 | O=C(N[C@H]1C[C@H](CCN2CCN(c3cccc(Cl)c3Cl)CC2)C1)c1nccs1 [Example 7A, N-(Trans-3-(2-(4-(2,3-dichlorophenyl)piperazin-1-yl)ethyl)cyclobutyl)thiazole-2-car boxamide] | –
